{
  "source": "patent US11800842B2",
  "about": "“Method for obtaining adventitious tetraploid bud of Blumea balsamifera” (Tropical Crops Genetic Resources Institute, Chinese Academy …, priority 2021, dated 2023)",
  "type_in_all_cases": "cell-based, Blumea balsamifera",
  "key": {"[1]": {"tested_on": "B. balsamifera somatic cells", "test": "Effects of different colchicine concentrations on induction of adventitious tetraploid buds from root segments", "details": "for Induction rate %: MS Medium with 1.0 mg/L 6-BA, 0.05 mg/L NAA, root segment about 4.0 cm, 60 days", "excerpt": "(§1) In the examples, effective root segment refers to uncontaminated root segment; induction rate refers to the percentage of the total number of adventitious tetraploid buds formed by induction accounting for the total number of diploid explants, and the calculation formula is: induction rate (%)=(total number of adventitious tetraploid buds/total number of diploid explants)×100%. Chimera rate (%)=(total number of adventitious buds of chimera/total number of adventitious buds)×100%.\nMS Medium was used as a basal medium, which was supplemented with 1.0 mg/L 6-BA, 0.05 mg/L NAA, 30 g/L sucrose, 6 g/L agar, and colchicine of different concentrations (50, 70, 90, 120, and 150 mg/L, respectively). Culture media were prepared individually, and segmented root tissues (with a root segment length of about 4.0 cm) were inoculated. Chromosome ploidy identification was conducted on the formed adventitious buds after 60 days. The number of adventitious tetraploid buds was counted, and the doubling induction rate was calculated."}, "[2]": {"tested_on": "root explants of diploid B. balsamifera", "test": "Effects of different NAA concentrations on induction of adventitious tetraploid buds from root segments", "details": "for Induction rate %: MS Medium with 1.0 mg/L 6-BA, 120 mg/L colchicine, root segment about 4.0 cm, 60 days", "excerpt": "as §1\nMS Medium was used as a basal medium, which was supplemented with 1.0 mg/L 6-BA, 120 mg/L colchicine, 30 g/L sucrose, 6 g/L agar, and NAA of different concentrations (0, 0.025, 0.05, 0.075, and 0.1 mg/L, respectively, 0 mg/L as the control group). Culture media were prepared individually, and segmented root tissues (with a root segment length of about 4.0 cm) were inoculated. Chromosome ploidy identification was conducted on adventitious buds after 60 days. The number of adventitious tetraploid buds was counted, and the induction rate was calculated."}, "[3]": {"tested_on": "B. balsamifera somatic cells", "test": "Effects of different 6-BA concentrations on induction of adventitious tetraploid buds from root segments", "details": "for Induction rate %: MS Medium with 0.05 mg/L NAA, 120 mg/L colchicine, root segment about 6.0 cm, 60 days", "excerpt": "as §1\nMS Medium was used as a basal medium, which was supplemented with 0.05 mg/L NAA, 120 mg/L colchicine, 30 g/L sucrose, 6 g/L agar, and 6-BA of different concentrations (0, 1.0, 1.5, and 2.0 mg/L, respectively, 0 mg/L as the control group). Culture media were prepared individually, segmented root tissues (with a root segment length of about 6.0 cm) were inoculated, and contaminated root explants were excluded after 60 days. The number of tetraploid buds was counted, and the doubling efficiency was calculated."}},
  "data": [
    {"smiles": "COc1cc2c(c(OC)c1OC)-c1ccc(OC)c(=O)cc1[C@@H](NC(C)=O)CC2", "note": "[Colchicine, colchicine]", "values": [
      {"measurement": "Induction rate %", "setting": "[1]; colchicine 50 mg/L", "value": 0, "unit": "%"},
      {"measurement": "Induction rate %", "setting": "[1]; colchicine 70 mg/L", "value": 0, "unit": "%"},
      {"measurement": "Induction rate %", "setting": "[1]; colchicine 90 mg/L", "value": 2.08, "unit": "%"},
      {"measurement": "effect of inducing root explants of diploid B. balsamifera to form adventitious tetraploid buds", "setting": "[1]; colchicine 120 mg/L, compared with 50, 70, 90 and 150 mg/L", "value": "optimal"},
      {"measurement": "Induction rate %", "setting": "[1]; colchicine 120 mg/L", "value": 10.42, "unit": "%"},
      {"measurement": "Induction rate %", "setting": "[1]; colchicine 150 mg/L", "value": 4.17, "unit": "%"}
    ]},
    {"smiles": "O=C(O)Cc1cccc2ccccc12", "note": "[NAA, 1-naphthaleneacetic acid]", "values": [
      {"measurement": "Induction rate %", "setting": "[2]; NAA 0.025 mg/L", "value": 2.08, "unit": "%"},
      {"measurement": "doubling effect", "setting": "[2]; NAA 0.05 mg/L, compared with 0, 0.025, 0.075 and 0.1 mg/L", "value": "optimal"},
      {"measurement": "Induction rate %", "setting": "[2]; NAA 0.05 mg/L", "value": 10.42, "unit": "%"},
      {"measurement": "Induction rate %", "setting": "[2]; NAA 0.075 mg/L", "value": 4.17, "unit": "%"},
      {"measurement": "Induction rate %", "setting": "[2]; NAA 0.1 mg/L", "value": 3.13, "unit": "%"}
    ]},
    {"smiles": "c1ccc(CNc2ncnc3nc[nH]c23)cc1", "note": "[6-BA, 6-benzylaminopurine]", "values": [
      {"measurement": "effect of inducing the doubling of the somatic cells of the root explants and dedifferentiating into adventitious tetraploid buds", "setting": "[3]; 6-BA 1.0 mg/L, compared with 0, 1.5 and 2.0 mg/L", "value": "optimal"},
      {"measurement": "Induction rate %", "setting": "[3]; 6-BA 1.0 mg/L", "value": 7.75, "unit": "%"},
      {"measurement": "Induction rate %", "setting": "[3]; 6-BA 1.5 mg/L", "value": 5.5, "unit": "%"},
      {"measurement": "Induction rate %", "setting": "[3]; 6-BA 2.0 mg/L", "value": 4.17, "unit": "%"}
    ]}
  ]
}
